PubChem BioAssay (NCI)
Where “and” joins values, the source holds several entries; their conditions need not be identical. Identical values can stand only once.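 Cultured in 96-well plates, cells were exposed to test compound for 48 hours across five concentrations. GI50 = concentration required for 50% inhibition of growth. TGI: concentration producing complete growth inhibition.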

Legend:
Experiment in all cases: NCI tumour cell line growth inhibition, 48 h
[1] = system: ACHN renal
[2] = system: COLO 205 colon
[3] = system: HCT-116 colon
[4] = system: KM12 colon
[5] = system: LOX IMVI melanoma
[6] = system: M14 melanoma
[7] = system: MALME-3M melanoma
[8] = system: NCI-H460 lung
[9] = system: SK-MEL-5 melanoma
[10] = system: TK-10 renal

Compound	GI50 [1]	TGI [1]	GI50 [2]	TGI [2]	GI50 [3]	TGI [3]	GI50 [4]	TGI [4]	GI50 [5]	TGI [5]	GI50 [6]	TGI [6]	GI50 [7]	TGI [7]	GI50 [8]	TGI [8]	GI50 [9]	TGI [9]	GI50 [10]	TGI [10]
COC(=O)c1cc(-c2ccc(OC)c(OC)c2)[nH]c1N/N=C/c1c(Cl)cccc1Cl	1.18 µM	13.2 µM	0.901 µM	4.95 µM	0.396 µM	2.11 µM	0.4 µM	9.69 µM	0.837 µM	13 µM	0.523 µM	5.2 µM	0.86 µM	31.8 µM	0.379 µM	1.85 µM	0.387 µM	4.56 µM	1.64 µM	9.47 µM
Cc1[nH]c(-c2cc(N)ccc2Cl)c2c1C(=O)CCCC2	3.42 µM	> 100 µM	3.91 µM	> 100 µM	3.92 µM	> 100 µM	5.47 µM	> 100 µM	2.25 µM	7.39 µM	4.37 µM	> 100 µM	2.12 µM	9.94 µM	10.3 µM	> 100 µM	6.15 µM	30.4 µM	2.19 µM	31 µM
Nc1n[nH]c2ccc([C@@H]3Nc4cc5c(cc4[C@H]4C6CCC(C6)[C@@H]34)C(=O)NC5)cc12 (some centres undefined)	0.726 µM	> 100 µM	0.326 µM	1.7 µM	0.343 µM	> 100 µM	0.472 µM	> 100 µM	0.291 µM	> 100 µM	0.287 µM	> 43.1 µM	0.718 µM	> 100 µM	0.424 µM	> 100 µM	0.232 µM	0.612 µM	70.1 µM	> 100 µM
CC1=C(CC2C(=O)N(c3ccccc3)S(=O)(=O)NC2C)C(=O)N(c2ccccc2)S(=O)(=O)N1C (centres undefined)		> 100 µM		> 100 µM		> 100 µM		> 100 µM		> 100 µM		> 100 µM		> 100 µM		> 100 µM		> 100 µM		> 100 µM
CC1C=CC(OC(=O)C(C)(O)CCC(O)(C(=O)OC2CC(O)C(C(C)C)CC2(C)O)C(C)C)(C(C)C)CC1 (centres undefined)	0.322 µM	0.949 µM	0.747 µM	1.61 µM	0.16 µM	0.449 µM	0.689 µM	1.45 µM	0.0734 µM	0.142 µM	0.745 µM	1.81 µM	0.709 µM	1.45 µM	0.799 µM	1.59 µM	0.377 µM	1.03 µM	0.754 µM	1.5 µM
C1CSCCSCCCSCCSCCCSCCSCCCSCCSC1		> 100 µM		> 100 µM		> 100 µM		> 100 µM		> 100 µM		> 100 µM		> 100 µM		> 100 µM		> 100 µM		> 100 µM
C=CCc1cc(Nc2c3ccc(Cl)cc3nc3ccc(OC)cc23)cc(CN(CC)CC)c1O	2.12 µM	13.1 µM	1.39 µM	3 µM	0.365 µM	1.97 µM	2.08 µM	12.3 µM	1.23 µM	2.58 µM	1.9 µM	5.3 µM	1.87 µM	6.78 µM	0.525 µM	2.69 µM	1.24 µM	2.49 µM	1.97 µM	11.1 µM
COc1cc(C(=O)c2cc(C)c3[nH]c4ccc(O)cc4c3c2C)cc(OC)c1OC	< 0.0128 µM	> 100 µM	0.0298 µM	0.11 µM	< 0.01 µM		< 0.0127 µM	23.8 µM	< 0.0143 µM	> 100 µM	0.0185 µM	> 100 µM	0.0347 µM	> 100 µM	< 0.0185 µM	> 100 µM	0.0162 µM	0.0637 µM	4.24 µM	> 100 µM
O=Nc1c(-c2c(O)[nH]c3ncccc23)[nH]c2ccccc12	2.58 µM	> 100 µM	28.4 µM	> 100 µM	6.12 µM	> 100 µM	1.32 µM	> 100 µM	5.32 µM	> 100 µM	10.8 µM	> 100 µM	8.83 µM	> 41.5 µM	7.25 µM	> 100 µM	15 µM	> 100 µM	5.52 µM	> 100 µM
N/C(=N\OC(=O)c1ccccc1)C(Cc1ccccc1)C(=O)NOC(=O)c1ccccc1 (centres undefined)	1.66 µM	3.58 µM	3.94 µM	14.7 µM	1.66 µM	3.38 µM	2.19 µM	5.28 µM	1.46 µM	3.68 µM	3.12 µM	10.8 µM	3.47 µM	14.8 µM	1.76 µM	3.71 µM	2.72 µM	9.03 µM	2.12 µM	3.76 µM
CC1=C(C(=O)Nc2ccc(Cl)c(Cl)c2)C(c2ccc([N+](=O)[O-])cc2)C(C(=O)Nc2ccc(Cl)c(Cl)c2)=C(C)N1		16.9 µM		3.13 µM		3.51 µM		3.63 µM		4.02 µM		3.82 µM		7.06 µM		6.15 µM		3.39 µM		55 µM
c1ccc2c(c1)CCc1c-2n[nH]c1-c1[nH]nc2c1CCc1ccccc1-2		> 100 µM		> 100 µM		> 100 µM		> 100 µM		> 100 µM		> 100 µM		> 100 µM		> 100 µM		> 100 µM		> 100 µM
COc1cc(C2(C)SCCCS2)cc(OC)c1OC		> 100 µM		> 100 µM		> 100 µM		> 100 µM		> 100 µM		> 100 µM		> 100 µM		> 100 µM		> 100 µM		> 100 µM
COc1cc(/C=C/c2ccc3c(Br)cc(Br)c(O)c3n2)ccc1O	0.891 µM	12.1 µM	5.01 µM	17.2 µM	0.532 µM	3.7 µM	1.41 µM	13.2 µM	0.977 µM	11.4 µM	1.61 µM	10.6 µM	4.81 µM	18.4 µM	0.446 µM	11.5 µM	1.47 µM	10.3 µM	3.84 µM	15.5 µM
CC(C)C[C@H](NC(=O)CCn1ccc2ccccc2c1=O)B(O)O	1.75 µM	> 100 µM	5.06 µM	> 100 µM	1.55 µM	19.8 µM	7.51 µM	29.8 µM	2.11 µM	6.78 µM	4.23 µM	> 100 µM	2.58 µM	9.89 µM	13 µM	56.2 µM	4.3 µM	19 µM	2.93 µM	9.8 µM
Nc1nc(N)c(CCCCc2ccccc2)c(N)n1		> 100 µM		> 100 µM		> 100 µM		> 100 µM		> 100 µM		> 100 µM		> 100 µM		> 100 µM		> 100 µM		> 100 µM
COc1ccc(OC(=O)CC2Cc3cc(OC)c(OC)c(OC)c3-c3ccc(SC)c(=O)cc32)cc1 (centres undefined)		> 57.7 µM		> 100 µM		11.2 µM		19.6 µM		17.8 µM		> 100 µM		> 100 µM		4.99 µM		13 µM		> 100 µM
O=C(Nc1ccccc1OC(=O)c1ccccc1)c1ccccc1	43.6 µM	> 100 µM	30.1 µM	95.6 µM	3.69 µM	> 100 µM	3.12 µM	10.9 µM	3.92 µM	> 100 µM	25.3 µM	> 100 µM	14.5 µM	> 100 µM	3.26 µM	15.2 µM	31.5 µM	> 100 µM	31.5 µM	> 100 µM
COc1ccc(Nc2ccnc(N3CCN(c4ccnc5cc(Cl)ccc45)CC3)n2)cc1	0.955 µM	> 24.5 µM	1.38 µM	3.8 µM	0.485 µM	3.27 µM	1.01 µM	4.16 µM	0.884 µM	5.23 µM	0.768 µM	3.28 µM	1.11 µM	4.65 µM	0.837 µM	4.68 µM	0.579 µM	1.87 µM	2.18 µM	7.95 µM
Oc1cccc2c1NCCC2	0.127 µM	> 70.7 µM	2.84 µM	12.9 µM	0.1 µM	> 100 µM	0.903 µM	> 100 µM	0.119 µM	> 36.7 µM	0.142 µM	15.6 µM	0.135 µM	98.9 µM	0.103 µM	4.66 µM	0.109 µM	1.85 µM	1.96 µM	> 100 µM
CCOc1ccc(NC(=O)CCc2nnc(SC)o2)cc1		> 100 µM		> 100 µM		> 100 µM		> 100 µM		> 100 µM		> 100 µM		> 100 µM		> 100 µM		> 100 µM		> 100 µM
O=C(NNS(=O)(=O)c1ccc(Cl)cc1Cl)c1cccnc1Nc1ccc(Cl)cc1	29.6 µM	93.5 µM	12.1 µM	24.4 µM	15.5 µM	28.8 µM	13.8 µM	28.6 µM	21.1 µM	46.5 µM	19 µM	38.7 µM	11.1 µM	34.9 µM	35.7 µM	> 100 µM	14.2 µM	29.7 µM	28.9 µM	84.3 µM
COc1ccc(-c2cc(=O)c3c(O)cccc3o2)c(OC)c1OC		> 100 µM		> 100 µM		> 100 µM		> 100 µM		> 100 µM		> 100 µM		> 100 µM		> 100 µM		> 100 µM		> 100 µM
COc1ccc(-c2[nH]c3ccccc3c2CCNS(=O)(=O)c2ccc(C)cc2)cc1		> 10 µM		4.03 µM		> 10 µM		> 10 µM		> 10 µM		> 10 µM		> 10 µM		> 10 µM		> 10 µM		> 10 µM
Cc1cccc(NC(=O)/C(=N\N)C(c2cnc3ccc([N+](=O)[O-])cc3n2)[N+](=O)[O-])c1C (centres undefined)		> 100 µM		> 100 µM		> 100 µM		> 100 µM		> 100 µM		> 100 µM		> 100 µM		> 100 µM		> 100 µM		> 100 µM
CCc1c(C)nc2sc3c(N)ncnc3c2c1C	> 25 µM	> 25 µM	> 25 µM	> 25 µM	> 25 µM	> 25 µM	> 25 µM	> 25 µM	> 25 µM	> 25 µM	> 25 µM	> 25 µM	> 25 µM	> 25 µM	> 25 µM	> 25 µM	> 25 µM	> 25 µM	> 25 µM	> 25 µM
COc1ccc(/C=C(/C)[N+](=O)[O-])cc1OC	2.18 µM and 1.46 µM	4.19 µM and 2.82 µM	1.78 µM and 1.5 µM	3.28 µM and 3.05 µM	1.76 µM and 1.56 µM	3.37 µM and 2.98 µM	3.66 µM and 2.1 µM	9.69 µM and 5.79 µM	1.6 µM and 1.15 µM	3.21 µM and 3.55 µM	1.97 µM and 1.69 µM	3.8 µM and 3.42 µM	1.69 µM and 0.38 µM	3.89 µM and 1.56 µM	2.78 µM and 3.14 µM	7.78 µM and 9.48 µM	1.71 µM and 1.9 µM	3.09 µM and 3.43 µM	1.76 µM and 1.32 µM	3.5 µM and 2.7 µM
COc1cc(C(=O)Nc2cc(O)c(CC=C(C)C)c(O)c2)cc2c1O[C@]1(C)CC[C@@H](O)C(C)(C)[C@H]1C2	1.78 µM	24.3 µM	1.37 µM	7.98 µM	0.219 µM	10.8 µM	1.76 µM	12.9 µM	0.281 µM	10.3 µM	0.333 µM	2.35 µM	2.85 µM	20 µM	0.547 µM	19.1 µM	1.13 µM	3.51 µM	2.91 µM	42.4 µM
COc1cc2c(cc1F)C(c1ccccc1Cl)=Nc1c(n[nH]c1C)N2	1.45 µM	10.2 µM	0.416 µM	3.79 µM	0.639 µM	18.4 µM	0.502 µM	15.5 µM	0.94 µM	13.1 µM	0.911 µM	22 µM	18 µM	32.7 µM	0.498 µM	26.5 µM	0.328 µM	6.51 µM	4.02 µM	18.3 µM
